Where two headings read alike, the source gives them in different places.
Legend:
[1] = molecular target: TRPML1 (Homo sapiens, UniProt Q9GZU1); assay: Fluorescent TRPML1 assay (Fluo4-AM calcium fluorescence in doxycycline-induced HEK-293 Trex cells); format: cell-based
Description: (§1) HEK-293 Trex cells were stably transfected with a construct consisting of the human coding sequence for TRPML1 cloned into the […] plasmid pCDNA5 T/O. Mutations were introduced into the TRPML1 sequence to facilitate expression on the cell surface (Silvia Vergarajauregui, Rosa Puertollano, Traffic. 2006 March; 7(3): 337-353). Briefly, the cells are cultured in 150 mm round tissue culture dishes containing 20 mL of media. The day before the assay the cells are rinsed with DPBS-Ca—Mg and then treated briefly with Trypsin-EDTA. The Trypsin-EDTA is diluted with growth media, and cells are counted. 38×10^6 cells are re-plated into 150 mm round tissue culture dishes in media containing 0.5 ug/mL doxycycline to induce expression of hTRPML1.
(§2) The day of the experiment cells are lifted from the plates as above and collected by centrifugation. The cells are then suspended in dye loading buffer consisting of Ringer's solution supplemented with 0.1% Pluronic Acid and 1 micromolar Fluo4-AM dye. Cells are loaded for ˜60 minutes in the dark with occasional mixing. The cells are collected by centrifugation, the loading media aspirated, and the cells resuspended in 25 mL Ringer's solution and incubated ˜60 minutes in the dark. The cells are again collected by centrifugation, rinsed in Ringer's Solution and resuspended to […] in modified Ringer's solution containing 10 mM calcium.
(§3) Compounds are dissolved to a concentration of 10 millimolar with DMSO. Compound plates are created by dispensing compounds into 384 well black wall clear bottom plates (Greiner 781091). Positive and negative controls are included on each plate. Typically, different amounts of each compound are tested ranging from 100 nanoMoles (20 micromolar final concentration) decreasing in half-log steps to 31 picoMoles (6 nanomolar final concentration). Each concentration is typically tested in triplicate.
(§4) 50 microliters of dye-loaded cells are dispensed into each well of the compound assay plate created above. The fluorescence in each well is then determined with an excitation wavelength of 480 nm and an emission wavelength of 540 nm using either a Molecular Devices SpectraMax multimode plate reader or a Hamamatsu FDSS/uCell plate imager.
(§5) The resulting fluorescence for each well is exported as an ascii file and loaded into our LIMS for analysis. The percent activity of each compound at each concentration is determined by comparison to the positive and negative control wells included in each plate.
(§6) EC50 values were calculated using a non-linear regression of Prism. In the table, “A” indicates an EC50 of less than 100 nM, “B” indicates an EC50 range from 100 nM to 500 nM; “C” indicates an EC50 range from 500 nM to 2 μM; and “D” indicates an EC50 greater than 2 μM.

[2] = molecular target: T1, TRPML3 (Homo sapiens, UniProt Q8TDD5); assay: Fluorescent TRPML3 assay (performed as for TRPML1, substituting the TRPML3 subtype); format: cell-based
T1 construct: expressed in transfected cells
T1 sequence (Q8TDD5 1-553): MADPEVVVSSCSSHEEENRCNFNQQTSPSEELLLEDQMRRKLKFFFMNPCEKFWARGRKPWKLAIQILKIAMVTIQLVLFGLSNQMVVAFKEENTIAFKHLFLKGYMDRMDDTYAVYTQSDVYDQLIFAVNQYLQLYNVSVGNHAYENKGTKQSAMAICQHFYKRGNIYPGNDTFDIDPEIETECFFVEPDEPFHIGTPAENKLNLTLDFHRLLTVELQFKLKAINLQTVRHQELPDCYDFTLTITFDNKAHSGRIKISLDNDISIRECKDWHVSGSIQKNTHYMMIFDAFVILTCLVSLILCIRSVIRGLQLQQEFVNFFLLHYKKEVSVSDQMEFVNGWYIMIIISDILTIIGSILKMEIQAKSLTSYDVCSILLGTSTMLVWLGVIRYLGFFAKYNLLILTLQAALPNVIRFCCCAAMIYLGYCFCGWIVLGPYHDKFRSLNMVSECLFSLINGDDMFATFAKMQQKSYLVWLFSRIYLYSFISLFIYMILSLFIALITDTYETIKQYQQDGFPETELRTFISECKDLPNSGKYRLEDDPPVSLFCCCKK
Description: as §1, §2, §3, §4, §5
TRPML2 and TRPML3 Assays Assays for TRPML2 and TRPML3 were performed as above for TRPML1, by substituting the appropriate TRPML2 or TRPML3 subtype for the TRPML1.
as §6

TRPML1, sequence (Q9GZU1 whole entry L15A/L16A/L577A/L578A, form open): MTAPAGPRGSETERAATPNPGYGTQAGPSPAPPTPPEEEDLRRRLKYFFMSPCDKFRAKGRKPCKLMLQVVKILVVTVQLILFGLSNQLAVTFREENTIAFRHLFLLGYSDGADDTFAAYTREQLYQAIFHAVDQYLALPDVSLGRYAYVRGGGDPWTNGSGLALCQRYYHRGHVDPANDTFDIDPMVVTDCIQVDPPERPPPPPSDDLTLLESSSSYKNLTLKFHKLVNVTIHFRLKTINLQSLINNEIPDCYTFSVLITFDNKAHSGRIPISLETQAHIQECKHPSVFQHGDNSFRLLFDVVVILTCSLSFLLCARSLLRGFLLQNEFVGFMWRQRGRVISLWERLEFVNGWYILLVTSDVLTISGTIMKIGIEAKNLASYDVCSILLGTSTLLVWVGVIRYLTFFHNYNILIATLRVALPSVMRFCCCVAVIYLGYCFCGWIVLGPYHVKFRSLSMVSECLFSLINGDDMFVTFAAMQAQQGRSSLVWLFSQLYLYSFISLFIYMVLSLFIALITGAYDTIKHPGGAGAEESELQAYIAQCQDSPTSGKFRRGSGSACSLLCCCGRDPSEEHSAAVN

| SMILES | EC50 ([1]; fluorescent calcium assay) [nM] | EC50 ([2]; fluorescent calcium assay) [nM] | EC50 [1] [nM] | EC50 [2] [nM] |
| --- | --- | --- | --- | --- |
| C[C@@H]1CN(c2ncnc3c2c(C2CC2)cn3-c2cc(C#N)ccn2)[C@@H](C)CN1C(=O)OC(C)(C)C [Compound 394, tert-butyl (2R,5S)-4-(7-(4-cyanopyridin-2-yl)-5-cyclopropyl-7H-pyrrolo[2,3-d]pyrimidin-4-yl)-2,5-dimethylpiperazine-1-carboxylate] | < 100 | < 100 |  |  |
| CC(C)(C)OC(=O)N1CCN(c2ncnc3c2c(C2CC2)cn3-c2cc(C#N)ccn2)CC1(C)C [Compound 395, tert-butyl 4-(7-(4-cyanopyridin-2-yl)-5-cyclopropyl-7H-pyrrolo[2,3-d]pyrimidin-4-yl)-2,2-dimethylpiperazine-1-carboxylate] | < 100 | < 100 |  |  |
| CC(C)(C)OC(=O)N1CCN(c2ncnc3c2c(C2CC2)cn3-c2cc(C#N)ccn2)CC12CC2 [Compound 396, tert-butyl 7-(7-(4-cyanopyridin-2-yl)-5-cyclopropyl-7H-pyrrolo[2,3-d]pyrimidin-4-yl)-4,7-diazaspiro[2.5]octane-4-carboxylate] | 100 to 500 | < 100 |  |  |
| C[C@H]1CN(C(=O)OC(C)(C)C)CCN1c1ncnc2c1c(C1CC1)cn2-c1ncc(C#N)s1 [Compound 397, tert-butyl (S)-4-(7-(5-cyanothiazol-2-yl)-5-cyclopropyl-7H-pyrrolo[2,3-d]pyrimidin-4-yl)-3-methylpiperazine-1-carboxylate] | > 2000 | 100 to 500 |  |  |
| CC(C)C(=O)N1CCN(c2nccc3c2c(-c2ccccc2F)cn3-c2cc(C#N)ccn2)[C@@H](C)C1 [Compound 450, (S)-2-(3-(2-fluorophenyl)-4-(4-isobutyryl-2-methylpiperazin-1-yl)-1H-pyrrolo[3,2-c]pyridin-1-yl)isonicotinonitrile] | < 100 | 100 to 500 |  |  |
| CC(C)(C)OC(=O)N1CCN(c2ncnc3c2c(-c2ccccc2F)cn3-c2nccc(C#N)n2)CC1 [Compound 459] | < 100 | < 100 |  |  |
| CC(C)(C)OC(=O)N1CC2(C1)CN(c1ncnc3c1c(C1CC1)cn3-c1cc(Cl)cc(Cl)c1)C2 [Compound 464, tert-butyl 6-(5-cyclopropyl-7-(3,5-dichlorophenyl)-7H-pyrrolo[2,3-d]pyrimidin-4-yl)-2,6-diazaspiro[3.3]heptane-2-carboxylate] | 500 to 2000 | 100 to 500 |  |  |
| C[C@@H]1CN(C(=O)OC(C)(C)C)CCN1c1ncnc2c1c(C1CCOCC1)cn2-c1cc(F)cc(F)c1 [Compound 467, tert-butyl (R)-4-(7-(3,5-difluorophenyl)-5-(tetrahydro-2H-pyran-4-yl)-7H-pyrrolo[2,3-d]pyrimidin-4-yl)-3-methylpiperazine-1-carboxylate] | > 2000 | 500 to 2000 |  |  |
| C[C@H]1CN(C(=O)OC(C)(C)C)CCN1c1ncnc2c1c(C1CCOCC1)cn2-c1cccc(F)c1 [Compound 470, tert-butyl (S)-4-(7-(3-fluorophenyl)-5-(tetrahydro-2H-pyran-4-yl)-7H-pyrrolo[2,3-d]pyrimidin-4-yl)-3-methylpiperazine-1-carboxylate] | 500 to 2000 | 500 to 2000 |  |  |
| C[C@@H]1CN(c2ncnc3c2c(OC2CCC2)cn3-c2cc(C#N)ccn2)[C@@H](C)CN1C(=O)OC(C)(C)C [Compound 508, tert-butyl (2R,5S)-4-(7-(4-cyanopyridin-2-yl)-5-cyclobutoxy-7H-pyrrolo[2,3-d]pyrimidin-4-yl)-2,5-dimethylpiperazine-1-carboxylate] |  |  | < 100 | < 100 |
| C[C@@H]1CN(c2ncnc3c2c(C(F)(F)F)cn3-c2cc(C#N)ccn2)[C@@H](C)CN1C(=O)OC1CC1 [Compound 515, cyclopropyl (2R,5S)-4-(7-(4-cyanopyridin-2-yl)-5-(trifluoromethyl)-7H-pyrrolo[2,3-d]pyrimidin-4-yl)-2,5-dimethylpiperazine-1-carboxylate] |  |  | < 100 | < 100 |
| Cc1c(C(F)(F)F)c2c(N3C[C@@H](C)N(C(=O)OC(C)(C)C)C[C@@H]3C)ncnc2n1-c1cc(C#N)ccn1 [Compound 531, tert-butyl (2R,5S)-4-(7-(4-cyanopyridin-2-yl)-6-methyl-5-(trifluoromethyl)-7H-pyrrolo[2,3-d]pyrimidin-4-yl)-2,5-dimethylpiperazine-1-carboxylate] |  |  | 100 to 500 | 100 to 500 |
| C[C@@H]1CN(c2ncnc3c2c(C(F)F)cn3-c2cc(F)cc(F)c2)[C@@H](C)CN1C(=O)OC1(C)CC1 [Compound 607, 1-methylcyclopropyl (2R,5S)-4-(5-(difluoromethyl)-7-(3,5-difluorophenyl)-7H-pyrrolo[2,3-d]pyrimidin-4-yl)-2,5-dimethylpiperazine-1-carboxylate] |  |  | 100 to 500 | 500 to 2000 |
| C[C@@H]1CN(c2ncnc3c2c(C(F)F)cn3-c2cc(F)ccn2)[C@@H](C)CN1C(=O)OC1(C)CC1 [Compound 611, 1-methylcyclopropyl (2R,5S)-4-(5-(difluoromethyl)-7-(4-fluoropyridin-2-yl)-7H-pyrrolo[2,3-d]pyrimidin-4-yl)-2,5-dimethylpiperazine-1-carboxylate] |  |  | 100 to 500 | 100 to 500 |
| C[C@@H]1CN(c2ncnc3c2c(C(F)F)cn3-c2cc(C#N)ccn2)[C@@H](C)CN1C(=O)OC1(C)CC1 [Compound 613, 1-methylcyclopropyl (2R,5S)-4-(7-(4-cyanopyridin-2-yl)-5-(difluoromethyl)-7H-pyrrolo[2,3-d]pyrimidin-4-yl)-2,5-dimethylpiperazine-1-carboxylate] |  |  | < 100 | < 100 |
| C[C@@H]1CN(c2ncnc3c2c(C(F)(F)F)cn3C2CCCC2)[C@@H](C)CN1C(=O)OC(C)(C)C [Compound 626, tert-butyl (2R,5S)-4-(7-cyclopentyl-5-(trifluoromethyl)-7H-pyrrolo[2,3-d]pyrimidin-4-yl)-2,5-dimethylpiperazine-1-carboxylate] |  |  | < 100 | 500 to 2000 |
| C[C@@H]1CN(c2ncnc3c2c(C(F)F)cn3C2CCCC2)[C@@H](C)CN1C(=O)OC(C)(C)C [Compound 628, tert-butyl (2R,5S)-4-(7-cyclopentyl-5-(difluoromethyl)-7H-pyrrolo[2,3-d]pyrimidin-4-yl)-2,5-dimethylpiperazine-1-carboxylate] |  |  | 500 to 2000 | 500 to 2000 |
| C[C@@H]1CN(c2ncnc3c2c(C(F)(F)F)cn3C2CCOCC2)[C@@H](C)CN1C(=O)OC(C)(C)C [Compound 630, tert-butyl (2R,5S)-2,5-dimethyl-4-(7-(tetrahydro-2H-pyran-4-yl)-5-(trifluoromethyl)-7H-pyrrolo[2,3-d]pyrimidin-4-yl)piperazine-1-carboxylate] |  |  | 500 to 2000 | > 2000 |
| C[C@@H]1CN(c2ncnc3c2c(C(F)(F)F)cn3[C@H]2CCCOC2)[C@@H](C)CN1C(=O)OC(C)(C)C [Compound 631, tert-butyl (2R,5S)-2,5-dimethyl-4-(7-((S)-tetrahydro-2H-pyran-3-yl)-5-(trifluoromethyl)-7H-pyrrolo[2,3-d]pyrimidin-4-yl)piperazine-1-carboxylate] |  |  | 500 to 2000 | > 2000 |
| C[C@@H]1CN(c2ncnc3c2c(C(F)(F)F)cn3[C@@H]2CCCOC2)[C@@H](C)CN1C(=O)OC(C)(C)C [Compound 632, tert-butyl (2R,5S)-2,5-dimethyl-4-(7-((R)-tetrahydro-2H-pyran-3-yl)-5-(trifluoromethyl)-7H-pyrrolo[2,3-d]pyrimidin-4-yl)piperazine-1-carboxylate] |  |  | 500 to 2000 | > 2000 |
